Measurements reported in ChEMBL document CHEMBL5120859, “Optimization of 4-arylthiophene-3-carboxylic acid derivatives as inhibitors of ANO1: Lead optimization studies toward their analgesic efficacy for inflammatory pain” (Eur J Med Chem, 2022).

Molecular target: T1, Anoctamin-1 (Homo sapiens, UniProt Q5XXA6)
T1 sequence (Q5XXA6 whole entry): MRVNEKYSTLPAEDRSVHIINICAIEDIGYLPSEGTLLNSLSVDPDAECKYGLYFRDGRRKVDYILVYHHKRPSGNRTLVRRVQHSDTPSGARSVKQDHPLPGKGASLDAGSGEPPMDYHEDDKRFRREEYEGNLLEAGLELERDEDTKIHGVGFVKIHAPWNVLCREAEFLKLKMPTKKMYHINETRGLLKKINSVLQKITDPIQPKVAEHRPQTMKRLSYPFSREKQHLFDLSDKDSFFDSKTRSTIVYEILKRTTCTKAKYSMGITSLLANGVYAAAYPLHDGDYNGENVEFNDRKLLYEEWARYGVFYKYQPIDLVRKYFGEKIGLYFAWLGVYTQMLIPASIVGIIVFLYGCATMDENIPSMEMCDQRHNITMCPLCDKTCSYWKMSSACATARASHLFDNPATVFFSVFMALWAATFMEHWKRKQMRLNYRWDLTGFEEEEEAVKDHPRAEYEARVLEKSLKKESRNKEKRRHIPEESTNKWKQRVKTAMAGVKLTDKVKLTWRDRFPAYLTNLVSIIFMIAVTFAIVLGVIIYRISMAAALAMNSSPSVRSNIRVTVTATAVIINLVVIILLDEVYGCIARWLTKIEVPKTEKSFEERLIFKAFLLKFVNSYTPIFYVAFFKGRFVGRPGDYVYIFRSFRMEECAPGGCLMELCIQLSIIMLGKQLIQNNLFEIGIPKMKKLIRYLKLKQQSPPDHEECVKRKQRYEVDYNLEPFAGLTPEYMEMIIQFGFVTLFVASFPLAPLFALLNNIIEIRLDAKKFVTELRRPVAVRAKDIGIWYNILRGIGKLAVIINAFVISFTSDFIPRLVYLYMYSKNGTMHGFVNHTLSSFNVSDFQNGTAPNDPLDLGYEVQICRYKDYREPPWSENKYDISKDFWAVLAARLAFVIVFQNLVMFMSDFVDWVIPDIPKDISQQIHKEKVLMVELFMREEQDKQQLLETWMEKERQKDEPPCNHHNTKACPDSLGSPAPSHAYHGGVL
Assay: Inhibition of YFP tagged ANO1 (unknown origin) expressed in FRT cells incubated for 24 hrs by fluorescence plate reader assay
Type: cell-based

SMILES: O=C(Nc1scc(-c2ccc(Cl)cc2)c1C(=O)O)c1cc(F)ccc1F
- IC50: 24 nM
